According to patent publication US10450297B2, “Sulfonyl amide derivatives for the treatment of abnormal cell growth” (Pfizer, Inc., priority 2007, dated 2019):

Biological target: FAK kinase (catalytic construct FAK(410-689)) (Homo sapiens (Human), UniProt Q05397)
Test: FAKcd kinase ELISA (inhibition of poly-glu-tyr phosphorylation by FAK(410-689))
Format: biochemical
Details: 50 μM final ATP

Sequence of FAK kinase (catalytic construct FAK(410-689)) (Q05397 410-689): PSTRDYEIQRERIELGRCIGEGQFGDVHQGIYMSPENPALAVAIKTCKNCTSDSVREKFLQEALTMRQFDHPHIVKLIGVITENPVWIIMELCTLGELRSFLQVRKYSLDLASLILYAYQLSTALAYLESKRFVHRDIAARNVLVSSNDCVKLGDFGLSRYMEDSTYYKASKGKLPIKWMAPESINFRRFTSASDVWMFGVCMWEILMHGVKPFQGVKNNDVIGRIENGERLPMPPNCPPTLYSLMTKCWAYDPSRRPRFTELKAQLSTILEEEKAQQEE

Row | IC50 [nM] | SMILES
1 | 0.59 | CCOC(=O)Cc1ccc(Nc2ncc(C(F)(F)F)c(NCc3cccnc3N(C)S(C)(=O)=O)n2)cc1 [Compound 98, ethyl [4-({4-[({2-[methyl(methylsulfonyl)amino]pyridin-3-yl}methyl)amino]-5-(trifluoromethyl)pyrimidin-2-yl}amino)phenyl]acetate]
2 | 0.38 | CN(c1cccc(CNc2nc(Nc3ccc(C(N)=O)cc3)ncc2C(F)(F)F)c1)S(C)(=O)=O [Compound 99, 4-{[4-({3-[methyl(methylsulfonyl)amino]benzyl}amino)-5-(trifluoromethyl)pyrimidin-2-yl]amino}benzamide]
3 | 2.33 | CC(=O)Nc1ccc(Nc2ncc(C(F)(F)F)c(NCc3cccnc3N(C)S(C)(=O)=O)n2)cn1 [Compound 102, N-[5-({4-[({2-[methyl(methylsulfonyl)amino]pyridin-3-yl}methyl)amino]-5-(trifluoromethyl)pyrimidin-2-yl}amino)pyridin-2-yl]acetamide]
4 | 0.94 | CN(c1ncccc1CNc1nc(Nc2ccc(CC(=O)O)cc2)ncc1C(F)(F)F)S(C)(=O)=O [Compound 105, [4-({4-[({2-[methyl(methylsulfonyl)amino]pyridin-3-yl}methyl)amino]-5-(trifluoromethyl)pyrimidin-2-yl}arnino)phenyl]acetic acid]
5 | 0.6 | Cc1cccc(CNc2nc(Nc3ccc(C(N)=O)cc3)ncc2C(F)(F)F)c1N(C)S(C)(=O)=O [Compound 108, 4-{[4-({3-methyl-2-[methyl(methylsulfonyl)amino]benzyl}amino)-5-(trifluoromethyl)pyrimidin-2-yl]amino}benzamide]
6 | 0.6 | Cc1ccc(CNc2nc(Nc3ccc(C(N)=O)cc3)ncc2C(F)(F)F)c(N(C)S(C)(=O)=O)c1 [Compound 109, 4-{[4-({4-methyl-2-[methyl(methylsulfonyl)amino]benzyl}amino)-5-(trifluoromethyl)pyrimidin-2-yl]amino}benzamide]
7 | 0.6 | Cc1ccc(N(C)S(C)(=O)=O)c(CNc2nc(Nc3ccc(C(N)=O)cc3)ncc2C(F)(F)F)c1 [Compound 110, 4-{[4-({5-methyl-2-[methyl(methylsulfonyl)amino]benzyl}amino)-5-(trifluoromethyl)pyrimidin-2-yl]amino}benzamide]
8 | 0.6 | CS(=O)(=O)Nc1ccccc1CNc1nc(Nc2ccc(C(N)=O)cc2)ncc1C(F)(F)F [Compound 111, 4-{[4-({2-[(methylsulfonyl)amino]benzyl}amino)-5-(trifluoromethyl)pyrimidin-2-yl]amino}benzamide]
9 | 0.6 | Cc1ccc(CNc2nc(Nc3ccc(C(N)=O)cc3)ncc2C(F)(F)F)c(NS(C)(=O)=O)c1 [Compound 112, 4-{[4-({4-methyl-2-((methylsulfonyl)amino]benzyl}amino)-5-(trifluoromethyl)pyrimidin-2-yl]amino}benzamide]
10 | 0.6 | Cc1cccc(NS(C)(=O)=O)c1CNc1nc(Nc2ccc(C(N)=O)cc2)ncc1C(F)(F)F [Compound 113, 4-{[4-({2-methyl-6-[(methylsulfonyl)amino]benzyl}amino)-5-(trifluoromethyl)pyrimidin-2-yl]amino}benzamide]
11 | 0.88 | CN(CCO)C(=O)c1cccc(Nc2ncc(C(F)(F)F)c(NCc3cccnc3N(C)S(C)(=O)=O)n2)c1 [Compound 115, N-(2-hydroxyethyl}-N-methyl-3-({4-[({2-[methyl(methylsulfonyl)amino]pyridin-3-yl)methyl)amino]-5-(trifluoromethyl)pyrimidin-2-yl}amino)benzamide]
12 | 1.47 | CN(c1ncccc1CNc1nc(Nc2cccc(C(=O)NC[C@H]3CCCO3)c2)ncc1C(F)(F)F)S(C)(=O)=O [Compound 117, 3-({4-[({2-[methyl(methylsulfonyl)amino]pyridin-3-yl}methyl)amino]-5-(trifluoromethyl)pyrimidin-2-yl}amino)-N-[(2R)-tetrahydrofuran-2-ylmethyl]benzamide]
13 | 1.14 | CN(c1ncccc1CNc1nc(Nc2cccc(C(=O)NC3CCCOC3)c2)ncc1C(F)(F)F)S(C)(=O)=O (stereo not drawn) [Compound 119, 3-({4-[({2-[methyl(methylsulfonyl)amino]pyridin-3-yl}methyl)amlno]-5-(trifluoromethyl)pyrimidin-2-yl}amino)-N-(tetrahydro-2H-pyran-3-yl)benzamide]
14 | 0.94 | CN(c1ncccc1CNc1nc(Nc2cccc(C(=O)NC3CCOCC3)c2)ncc1C(F)(F)F)S(C)(=O)=O [Compound 121, 3-({4-[({2-[methyl(methylsulfonyl)amino]pyridin-3-yl}methyl)amino]-5-(trifluoromethyl)pyrimidin-2-yl}amino)-N-(tetrahydro-2H-pyran-4-yl)benzamide]
15 | 2.15 | CN(c1ncccc1CNc1nc(Nc2cccc(C(=O)N3CCOCC3)c2)ncc1C(F)(F)F)S(C)(=O)=O [Compound 123, N-methyl-N-[3-({(2-{[3-(morpholin-4-ylcarbonyl)phenyl]amino}-5-(trifluoromethyl)pyrimidin-4-yl]amino}methyl)pyridin-2-yl]methanesulfonamide]
16 | 1.27 | CN(c1ncccc1CNc1nc(Nc2cccc(C(=O)N3CCC3)c2)ncc1C(F)(F)F)S(C)(=O)=O [Compound 125, N-[3-({[2-{[3-(azetidin-1-ylcarbonyl)phenyl]amino}-5-(trifluoromethyl)pyrimldin-4-yl]amino}methyl)pyridin-2-yl]-N-methylmethanesulfon-amide]
17 | 2.11 | CN(c1ncccc1CNc1nc(Nc2cccc(C(=O)NCC3(O)CCC3)c2)ncc1C(F)(F)F)S(C)(=O)=O [Compound 127, N-[(1-hydroxycyclobutyl)methyl]-3-({4-[({2-[methyl(methylsulfonyl)amino]pyridin-3-yl}methyl)amino]-5-(trifluoromethyl)pyrimidin-2-yl}amino)benzamide]
18 | 0.76 | CN(c1ncccc1CNc1nc(Nc2cccc(C(=O)N(CCO)CCO)c2)ncc1C(F)(F)F)S(C)(=O)=O [Compound 129, N,N-bis(2-hydroxyethyl)-3-({4-[({2-[methyl(methylsulfonyl)amino]pyridin-3-yl}methyl)amino]-5-(trifluoromethyl)pyrimidin-2-yl}amino)benzamide]
19 | 10.8 | CN(C(=O)c1cccc(Nc2ncc(C(F)(F)F)c(NCc3cccnc3N(C)S(C)(=O)=O)n2)c1)C1CCCC1 [Compound 131, N-cyclopentyl-N-methyl-3-({4-[({2-[methyl(methylsulfonyl)amino]pyridin-3-yl}methyl)amino]-5-(trifluoromethyl)pyrimidin-2-yl}amino)benzamide]
20 | 1.95 | CN(C)C(=O)CNC(=O)c1cccc(Nc2ncc(C(F)(F)F)c(NCc3cccnc3N(C)S(C)(=O)=O)n2)c1 [Compound 133, N-[2-(dimethylamino)-2-oxoethyl]-3-({4-[({2-[methyl(methylsulfonyl)amino]pyridin-3-yl}methyl)amino]-5-(trifluoromethyl)pyrimidin-2-yl}amino)benzamide]
21 | 3.33 | CN(c1ncccc1CNc1nc(Nc2cccc(C(=O)N3CCC(C)(O)C3)c2)ncc1C(F)(F)F)S(C)(=O)=O (stereo not drawn) [Compound 135, N-[3-({(2-({3-[(3-hydroxy-3-methyipyrrolidin-1-yl)carbonyl]phenyl}amino)-5-(trifluoromethyl)pyrimidin-4-yl]amino}methyl)pyridin-2-yl]-N-methylmethane-sulfonamide]
